Measurements reported in patent US20250144164A1, “COMPOSITIONS, METHODS, AND MEDICAL COMPOSITIONS FOR TREATMENT OF AND MAINTAINING THE HEALTH OF THE LIVER” (priority 2023, published 2025).

System: CCl4-induced hepatotoxicity model
Assay: Carbon tetrachloride (CCl4)-induced hepatotoxicity model, serum ALT and survival
Format: in vivo, ICR/CD-1 mice
Conditions: CCL4 25 μl/kg; dose 50 mg/kg

C=CCc1cc(OC)c2c(c1)OCO2 [Myristicin]
% Change (inhibition in serum ALT): 99.7%
